ChEMBL document CHEMBL5505952, “Targeting SARS-CoV-2 entry processes: The promising potential and future of host-targeted small-molecule inhibitors” (Eur J Med Chem, 2024)
*1 amine or outer side, *2 acyl side, *3 side chain or, on linkers, in order; H or OH if unused. Where a SMILES comes first, the peptide text is derived from it. [ ]: non-standard residue; d: D form. The star is where a group is joined. X1 = N=C(N)NCCC[C@H](N[*:1])C(=O)c1nc2ccc(C(=O)[*:2])cc2s1; Nle = CCCC[C@H](N)C(=O)O; Cbz = O=C(OCc1ccccc1)*

Key:
[1] = target: Neuropilin-1 (Homo sapiens, UniProt O14786); assay: Inhibition of [125I]-VEGF-A165 binding to NRP1 (unknown origin) in HUVEC cells; type: cell-based
Neuropilin-1, sequence (O14786 whole entry): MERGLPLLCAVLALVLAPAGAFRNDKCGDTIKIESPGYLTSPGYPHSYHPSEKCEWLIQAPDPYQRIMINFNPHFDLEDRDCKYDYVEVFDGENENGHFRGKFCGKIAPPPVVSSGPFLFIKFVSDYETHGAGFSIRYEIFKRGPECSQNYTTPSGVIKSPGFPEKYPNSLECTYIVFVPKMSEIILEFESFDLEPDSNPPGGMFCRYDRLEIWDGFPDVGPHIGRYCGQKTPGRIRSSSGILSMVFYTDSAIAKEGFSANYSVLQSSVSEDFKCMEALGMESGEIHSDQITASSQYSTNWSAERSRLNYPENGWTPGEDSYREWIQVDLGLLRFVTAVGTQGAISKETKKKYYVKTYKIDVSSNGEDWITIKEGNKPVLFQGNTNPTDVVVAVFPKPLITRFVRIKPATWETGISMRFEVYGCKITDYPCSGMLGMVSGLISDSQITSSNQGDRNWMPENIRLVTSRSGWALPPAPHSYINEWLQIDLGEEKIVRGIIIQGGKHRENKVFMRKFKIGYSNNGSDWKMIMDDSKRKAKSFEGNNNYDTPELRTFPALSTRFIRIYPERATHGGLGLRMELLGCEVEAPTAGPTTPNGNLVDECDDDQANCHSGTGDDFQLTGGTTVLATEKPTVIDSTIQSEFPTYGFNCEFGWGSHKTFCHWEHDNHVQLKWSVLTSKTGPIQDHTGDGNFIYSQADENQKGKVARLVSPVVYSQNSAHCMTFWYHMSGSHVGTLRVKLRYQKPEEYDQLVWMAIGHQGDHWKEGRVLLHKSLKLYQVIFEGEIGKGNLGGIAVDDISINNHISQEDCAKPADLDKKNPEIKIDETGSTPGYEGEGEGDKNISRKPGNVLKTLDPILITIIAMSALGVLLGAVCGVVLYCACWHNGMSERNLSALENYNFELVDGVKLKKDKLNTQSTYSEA

[2] = system: SARS-CoV-2; assay: Antiviral activity against VSV-S pseudotyped SARS-CoV-2 infected in human Calu-3 cells assessed as inhibition of viral growth; type: functional, organism-based; details: Severe acute respiratory syndrome coronavirus 2, Calu-3
[3] = system: SARS-CoV-2; assay: Antiviral activity against SARS-CoV-2 WA1/2020 infected in human Calu-3 cells preincubated for 2 hrs followed by viral infection and measured after 48 hrs by microscopy analysis; type: functional, organism-based; details: Severe acute respiratory syndrome coronavirus 2, WA1/2020, Calu-3
[4] = system: SARS-CoV-2; type: functional, organism-based; details: Severe acute respiratory syndrome coronavirus 2, Vero C1008, 72 h
[5] = target: T1, 1-phosphatidylinositol 3-phosphate 5-kinase (Homo sapiens, UniProt Q9Y2I7); assay: Binding affinity to N-terminal His-tagged human PIKfyve expressed in Sf9 cells assessed as dissociation constant
T1 sequence (Q9Y2I7 whole entry): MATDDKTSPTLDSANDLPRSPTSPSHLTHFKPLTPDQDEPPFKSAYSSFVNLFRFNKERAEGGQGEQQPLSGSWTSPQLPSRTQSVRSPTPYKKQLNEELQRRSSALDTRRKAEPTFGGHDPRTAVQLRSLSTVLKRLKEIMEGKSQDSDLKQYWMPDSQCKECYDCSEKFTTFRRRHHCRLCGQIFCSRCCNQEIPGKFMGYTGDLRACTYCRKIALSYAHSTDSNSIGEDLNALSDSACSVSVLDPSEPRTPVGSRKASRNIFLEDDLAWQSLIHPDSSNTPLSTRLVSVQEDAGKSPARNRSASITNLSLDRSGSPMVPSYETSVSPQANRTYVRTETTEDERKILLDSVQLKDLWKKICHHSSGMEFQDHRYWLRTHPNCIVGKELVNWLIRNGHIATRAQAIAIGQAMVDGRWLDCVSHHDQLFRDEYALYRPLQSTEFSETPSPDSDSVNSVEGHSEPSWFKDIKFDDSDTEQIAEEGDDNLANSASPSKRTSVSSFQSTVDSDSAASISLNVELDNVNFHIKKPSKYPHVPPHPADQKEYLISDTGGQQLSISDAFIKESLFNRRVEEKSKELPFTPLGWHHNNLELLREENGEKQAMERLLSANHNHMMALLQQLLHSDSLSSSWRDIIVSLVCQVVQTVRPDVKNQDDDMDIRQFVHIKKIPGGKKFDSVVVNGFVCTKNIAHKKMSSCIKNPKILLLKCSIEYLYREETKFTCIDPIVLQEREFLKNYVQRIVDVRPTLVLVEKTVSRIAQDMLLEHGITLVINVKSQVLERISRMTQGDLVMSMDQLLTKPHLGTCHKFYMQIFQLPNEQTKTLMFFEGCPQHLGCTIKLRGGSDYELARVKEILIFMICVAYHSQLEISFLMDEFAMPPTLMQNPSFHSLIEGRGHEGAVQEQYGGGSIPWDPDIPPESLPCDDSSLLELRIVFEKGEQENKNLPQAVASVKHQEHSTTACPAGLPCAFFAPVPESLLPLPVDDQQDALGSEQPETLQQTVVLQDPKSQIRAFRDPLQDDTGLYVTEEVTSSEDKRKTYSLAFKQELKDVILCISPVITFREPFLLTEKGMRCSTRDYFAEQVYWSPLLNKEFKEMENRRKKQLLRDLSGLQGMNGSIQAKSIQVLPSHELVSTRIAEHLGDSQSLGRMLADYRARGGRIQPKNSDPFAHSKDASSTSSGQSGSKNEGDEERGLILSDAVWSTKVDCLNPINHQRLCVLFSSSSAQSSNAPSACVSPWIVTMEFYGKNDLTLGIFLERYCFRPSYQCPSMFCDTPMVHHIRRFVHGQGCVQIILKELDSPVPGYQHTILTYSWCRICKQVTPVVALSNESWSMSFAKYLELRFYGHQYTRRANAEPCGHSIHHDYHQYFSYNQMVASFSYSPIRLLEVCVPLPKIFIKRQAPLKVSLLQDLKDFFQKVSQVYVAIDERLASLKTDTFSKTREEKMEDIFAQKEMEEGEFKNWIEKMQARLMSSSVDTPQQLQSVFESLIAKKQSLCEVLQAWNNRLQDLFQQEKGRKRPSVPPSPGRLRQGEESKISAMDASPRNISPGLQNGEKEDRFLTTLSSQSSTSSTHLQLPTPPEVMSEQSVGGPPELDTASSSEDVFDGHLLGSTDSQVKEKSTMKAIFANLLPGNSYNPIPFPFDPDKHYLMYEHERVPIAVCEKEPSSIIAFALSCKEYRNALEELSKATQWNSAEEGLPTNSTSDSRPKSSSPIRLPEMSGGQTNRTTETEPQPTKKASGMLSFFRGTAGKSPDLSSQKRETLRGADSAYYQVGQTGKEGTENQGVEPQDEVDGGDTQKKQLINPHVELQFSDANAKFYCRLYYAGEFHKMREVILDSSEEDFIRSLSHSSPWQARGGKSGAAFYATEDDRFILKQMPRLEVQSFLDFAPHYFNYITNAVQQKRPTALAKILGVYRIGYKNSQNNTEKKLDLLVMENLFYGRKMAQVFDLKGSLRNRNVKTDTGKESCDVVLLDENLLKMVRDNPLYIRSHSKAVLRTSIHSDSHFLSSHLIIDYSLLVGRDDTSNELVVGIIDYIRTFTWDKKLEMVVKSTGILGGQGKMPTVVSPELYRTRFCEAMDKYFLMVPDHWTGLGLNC

[6] = system: SARS-CoV-2; type: functional, organism-based; details: Severe acute respiratory syndrome coronavirus 2, NRC-03-nhCoV, Vero C1008, 72 h
[7] = system: RAW264.7; assay: Antiinflammatory activity in mouse RAW264.7 cells assessed as effect on LPS induced IL-12p40 level measured after 24 hrs by RT-qPCR analysis; type: functional, cell-based; details: RAW264.7, 24 h
[8] = target: T1, 1-phosphatidylinositol 3-phosphate 5-kinase; assay: Inhibition of PIKfyve (unknown origin)
[9] = system: SARS-CoV-2; type: functional, organism-based; details: Severe acute respiratory syndrome coronavirus 2, Vero C1008, 48 h
[10] = system: SARS-CoV-2; assay: microbe, parasite or virus in culture; details: Severe acute respiratory syndrome coronavirus 2, Vero C1008, 24 h
[11] = system: SARS-CoV-2; assay: microbe, parasite or virus in culture; details: Severe acute respiratory syndrome coronavirus 2, Huh-7
[12] = system: SARS-CoV-2; type: functional, organism-based; details: Severe acute respiratory syndrome coronavirus 2, Vero C1008, 48 h; remark: listed apart in the source
[13] = system: SARS-CoV-2; assay: Antiviral activity against SARS-CoV-2 USA-WA1/2020 infected in human Calu-3 cells assessed as reduction in viral replication by qRT-PCR analysis; type: functional, organism-based; details: Severe acute respiratory syndrome coronavirus 2, USA-WA1/2020, Calu-3
[14] = system: SARS-CoV-2; type: functional, organism-based; details: Severe acute respiratory syndrome coronavirus 2, USA-WA1/2020, Huh-7
[15] = system: SARS-CoV-2; type: functional, organism-based; details: Severe acute respiratory syndrome coronavirus 2, Omicron B.1.617.2 delta, 293T/ACE2, 48 h
[16] = system: SARS-CoV-2; assay: Antiviral activity against SARS-CoV-2 USA-WA1/2020 infected in african green monkey Vero C1008 cells assessed as reduction in viral replication by qRT-PCR analysis; type: functional, organism-based; details: Severe acute respiratory syndrome coronavirus 2, USA-WA1/2020, Vero C1008
[17] = system: SARS-CoV-2; assay: microbe, parasite or virus in culture; details: Severe acute respiratory syndrome coronavirus 2, USA-WA1/2020, Vero 76, 72 h
[18] = system: SARS-CoV-2; assay: microbe, parasite or virus in culture; details: Severe acute respiratory syndrome coronavirus 2, Huh-7; remark: listed apart in the source
[19] = system: SARS-CoV-2; assay: microbe, parasite or virus in culture; details: Severe acute respiratory syndrome coronavirus 2, Calu-3, 48 h
[20] = system: SARS-CoV-2; assay: microbe, parasite or virus in culture; details: Severe acute respiratory syndrome coronavirus 2, Vero C1008, 24 h; remark: listed apart in the source
[21] = target: T2, Procathepsin L (Homo sapiens, UniProt P07711); assay: Inhibition of Cathepsin L (unknown origin)
T2 sequence (P07711 whole entry): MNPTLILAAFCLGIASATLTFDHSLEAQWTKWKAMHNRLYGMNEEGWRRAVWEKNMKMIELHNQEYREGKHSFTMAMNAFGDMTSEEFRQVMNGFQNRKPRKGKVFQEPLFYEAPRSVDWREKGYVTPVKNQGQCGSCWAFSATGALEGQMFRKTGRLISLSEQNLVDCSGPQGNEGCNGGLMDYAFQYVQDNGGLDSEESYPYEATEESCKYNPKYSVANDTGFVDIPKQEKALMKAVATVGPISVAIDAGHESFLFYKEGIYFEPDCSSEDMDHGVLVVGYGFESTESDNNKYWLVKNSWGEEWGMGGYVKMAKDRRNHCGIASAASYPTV

[22] = system: SARS-CoV-2; type: functional, organism-based; details: Severe acute respiratory syndrome coronavirus 2, Huh-7
[23] = system: SARS-CoV-2; type: functional, organism-based; details: Severe acute respiratory syndrome coronavirus 2, Huh-7; remark: listed apart in the source
[24] = system: SARS-CoV-2; type: functional, organism-based; details: Severe acute respiratory syndrome coronavirus 2, Wuhan-Hu-1, Vero C1008
[25] = target: T2, Procathepsin L; assay: Inhibition of human recombinant Cathepsin L using Z-Phe-Arg-AMC as substrate incubated for 60 mins by fluorescence spectrophotometric analysis
[26] = target: Replicase polyprotein 1ab (Severe acute respiratory syndrome coronavirus 2, UniProt P0DTD1); assay: Inhibition of SARS-Cov-2 Main protease by FRET assay

Cc1nc(N2CCOCC2)ncc1-c1cc(=O)[nH]c(Nc2ccccc2)n1
IC50 [1]: 0.598 nM

CC(=O)N1CCC[C@H]1C(=O)N[C@@H](CCC(N)=O)C(=O)N[C@@H](Cc1ccccc1)C(=O)N[C@@H](CCCNC(=N)N)C(=O)c1nc2ccccc2s1
EC50 [2]: 0.86 nM
IC50 [3]: 105 nM

Cc1ccc(NC(=O)c2cccc(C(F)(F)F)c2)cc1Nc1nc(-c2ccncc2)c2[nH]ccc2n1
EC50 [4]: 12300 nM
Kd [5]: > 30000 nM

N=C(N/N=C/c1ccncc1)c1nonc1NCNc1nonc1C(=N)N/N=C/c1ccncc1
IC50 [6]: 16 nM

Cc1ncc(-c2ccc(C3=CCN(C(C)C)CC3)nc2)cc1NC(=O)c1ccc2[nH]c(C)c(C)c2n1
IC50 [7]: 2 nM

CC[C@@H](C)[C@H](NC(C)=O)C(=O)N[C@@H](CCC(N)=O)C(=O)N[C@@H](Cc1ccccc1)C(=O)N[C@@H](CCCNC(=N)N)C(=O)c1nc2ccccc2s1
EC50 [2]: 3.6 nM
IC50 [3]: 102 nM

CCc1c(C)[nH]c2ccc(C(=O)Nc3cncc(-c4ccc(N5C[C@@H](C)O[C@@H](C)C5)nc4)c3)nc12
IC50 [7]: 2.4 nM

Nc1ncc2c(n1)Cc1c([nH]c3ccc(-c4ccc(F)cc4)cc13)CC2
IC50 [8]: 9.3 nM
IC50 [9]: 73.3 nM

Cn1nc(C(C)(C)C)cc1C(=O)N[C@@H](Cc1cccc(Cl)c1)C(=O)NCC#N
EC50 [10]: 140 nM

CCCC[C@@H](C=O)NC(=O)[C@H](CC(C)C)NC(=O)[C@H](CC(C)C)NC(C)=O (Ac-Leu-Leu-[Nle]-aldehyde)
EC50 [11]: 3120 nM

CC(=O)N[C@@H](CO)C(=O)N[C@@H](CCCCN)C(=O)N[C@@H](CC(C)C)C(=O)N[C@@H](CCCNC(=N)N)C(=O)c1nc2ccc(C(=O)N[C@H](C(N)=O)C(C)C)cc2s1 (Ac-SKL[X1]V-NH2)
EC50 [2]: 489 nM
EC50 [12]: 307 nM

O=C[C@H](Cc1ccc(O)cc1)NC(=O)[C@H](Cc1ccccc1)NC(=O)OCc1ccccc1 (Cbz-Phe-Tyr-aldehyde)
EC50 [10]: 620 nM

CC(C)[C@H](NC(=O)OCc1ccccc1)C(=O)N[C@H](C=O)Cc1ccccc1 (Cbz-Val-Phe-aldehyde)
EC50 [10]: 1560 nM

CCOC(=O)[C@H]1O[C@@H]1C(=O)N[C@@H](CC(C)C)C(=O)NCCC(C)C [ALOXISTATIN]
EC50 [10]: 270 nM

N=C(N)NCCCCC(=O)Nc1cc(C(F)(F)F)cc(NC(=O)c2cc(C(=O)Nc3cc(C(F)(F)F)cc(NC(=O)CCCCNC(=N)N)c3O[C@@H]3CCNC3)ncn2)c1O[C@@H]1CCNC1 [BRILACIDIN]
IC50 [13]: 12000 nM
IC50 [14]: 12000 nM
IC50 [15]: 12000 nM
IC50 [16]: 12000 nM

CCCC[C@@H](C=O)NC(=O)[C@H](CC(C)C)NC(=O)OCc1ccccc1 [CALPEPTIN]
EC50 [17]: 1030 nM
EC50 [18]: 29800 nM

C#Cc1cccc(Nc2ncnc3cc(OCCOC)c(OCCOC)cc23)c1 [ERLOTINIB]
EC50 [19]: > 20000 nM
EC50 [20]: > 20000 nM

CC(C)C[C@@H](C=O)NC(=O)[C@H](CC(C)C)NC(=O)[C@H](CC(C)C)NC(=O)OCc1ccccc1 [MG-132] (Cbz-Leu-Leu-Leu-aldehyde)
IC50 [21]: 12.3 nM
EC50 [22]: 212 nM
EC50 [23]: 210 nM

CCN(CC)CCNC(=O)c1c(C)[nH]c(/C=C2\C(=O)Nc3ccc(F)cc32)c1C [SUNITINIB]
EC50 [19]: 2900 nM
EC50 [20]: 2400 nM

N[C@H]1C(=O)N[C@@H]2Cc3ccc(c(Cl)c3)Oc3cc4cc(c3O)Oc3ccc(cc3Cl)[C@@H](O)[C@@H]3NC(=O)[C@H](NC(=O)[C@@H]4NC(=O)[C@@H](NC2=O)c2cc(O)cc(c2)Oc2cc1ccc2O)c1ccc(O)c(c1)-c1c(O)cc(O)cc1[C@@H](C(=O)O)NC3=O [TEICOPLANIN AGLYCON]
IC50 [24]: 2040 nM
IC50 [25]: 208000 nM
IC50 [26]: 1460 nM
